The values that follow come from patent US4970205A, “Sulfonic acid substituted aromatic steroids as inhibitors of steroid 5-α-reductase” (SmithKline Beecham Corporation, priority 1988, dated 1990).

Where two headings read alike, the source gives them in different places.

One assay deals with steroid 5-α-reductase. As to conditions: cited from earlier work; for Ki / reversibility of inhibition (with Ki): Table I; for time-dependence of 5-α-reductase inhibition: footnote text of Table I.
Assay [1] deals with T1, human steroid 5-α-reductase (Homo sapiens, UniProt P31213).
T1 construct: Frozen human prostates were thawed and minced into small pieces; from tissue; host or cells: hyperplastic human prostate, 140,000 x g particulate fraction
T1 sequence (P31213 1-254): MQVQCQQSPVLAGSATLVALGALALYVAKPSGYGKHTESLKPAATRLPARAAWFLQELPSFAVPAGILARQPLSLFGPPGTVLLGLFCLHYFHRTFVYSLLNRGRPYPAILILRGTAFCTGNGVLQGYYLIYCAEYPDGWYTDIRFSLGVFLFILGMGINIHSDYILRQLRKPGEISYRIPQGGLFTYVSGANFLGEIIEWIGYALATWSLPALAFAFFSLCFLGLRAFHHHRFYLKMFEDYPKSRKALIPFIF
The assay can be described thus: inhibition of human steroid 5-α-reductase using tissue from hyperplastic human prostates ([14C]-testosterone conversion, Dixon plot). In kind it is biochemical. As to conditions: human prostatic particulate, pH 5.0, 37° C., 20 to 30 minutes; competitive against testosterone assumed. Here is the method:
A compound of the invention, potassium 17b-(N,N-diisopropylcarboxamide)-estr-1,3,5(10)-triene-3-sulfonate, was tested for potency in inhibiting human steroid 5-α-reductase using tissue from hyperplastic human prostates. In determining potency in inhibiting the human enzyme, the following procedure was employed:
Frozen human prostates were thawed and minced into small pieces (5 mm^3). The tissue was homogenized in 3 to 5 volumes of 20 mM potassium phosphate buffer, pH 6.5, containing 0.33 M sucrose, 1 mM dithiothreitol, and […] with a Brinkmann Polytron (Sybron Corporation, Westbury, N.Y.). The solution was subjected to sonication for 3 to 5 minutes with a Sonifier (Branson Sonic Power Co.) followed by hand homogenization in a glass-to-glass Dounce homogenizer (Kontes Glass Company, Vineland, N.J.). […]
A constant amount of [^14 C]-testosterone (52 to 55 mCi/mmol, New England Nuclear, Boston, Mass.) in ethanol and varying amounts of the potential inhibitor in ethanol were deposited in test tubes and concentrated to dryness in a SAVANT Speed Vac. […] The radiochemical content in the bands of the substrate and the products was determined with a BIOSCAN Imaging Scanner (Bioscan, Inc., Washington, D.C.). The percent of recovered radiolabel converted to product was calculated, from which enzyme activity was determined. […]

For the compound `C=C1CC2C(CCC3(C)C2CCC3(OC(C)=O)C(C)=O)C2(C)CCC(=O)C=C12` (stereo not shown) [(5)], on steroid 5-α-reductase, the Ki was 1.25 µM, the “reversibility of inhibition (with Ki)” value was “Irreversible” and the “time-dependence of 5-α-reductase inhibition” value is given as “time-dependent inactivator”.
For `CC(CO)C1CCC2C3CCC4C(=[N+]=[N-])C(=O)CCC4(C)C3CCC12C` (stereo not shown) [(3)], at steroid 5-α-reductase (unit inferred), the Ki is 0.035 µM. Also, in the assay with steroid 5-α-reductase, the “reversibility of inhibition (with Ki)” value is recorded as “Irreversible” and the “time-dependence of 5-α-reductase inhibition” value is “potent, time-dependent”.
Take `CC(C)N(C(=O)[C@H]1CC[C@H]2[C@@H]3CCc4cc(S(=O)(=O)O)ccc4[C@H]3CC[C@]12C)C(C)C` [Potassium 17β-(N,N-Diisopropylcarboxamide)-estr-1,3,5(10)-triene-3-sulfonate]: the affinity in assay [1] corresponds to a Ki of 0.01 µM.
For `CC(=O)C1CCC2C3CC=C=CC(=O)CCC(=O)C3CCC12C` (stereo not shown) [(2)], on steroid 5-α-reductase, the Ki was 1 µM and the “reversibility of inhibition (with Ki)” value was “Irreversible”.
As to `CC12CCC(=O)C=C1CCC1C2CCC2(C)C(C(=O)O)CCC12` (stereo not shown) [(1)], at steroid 5-α-reductase, the inhibitory constant (Ki) was 1.1 µM and the “reversibility of inhibition (with Ki)” value is given as “Reversible”.
Turning to `CCN(CC)C(=O)C1CCC2C3CCC4N(C)C(=O)CCC4(C)C3CCC12C` (stereo not shown) [(4)], at steroid 5-α-reductase, the Ki was 0.005 µM and the “reversibility of inhibition (with Ki)” value is “Reversible”.

Broadly, the Ki is the dissociation constant of the complex between target and ligand, obtained from inhibition or displacement.
